Series [1] can be described thus: Rat cerebrospinal fluid (CSF) pharmacokinetic properties. It counts as in vivo. The settings on record: for concentration at 1 h: CSF, male Sprague-Dawley rats, PO 10 mg/kg in PEG400, 1 h post-dosing, read-out: CSF Conc. (nM @ 1 h); for Kp uu at 1 h: male, Sprague-Dawley, CSF and plasma (unbound), unbound CSF/unbound plasma ratio, rats, PO 10 mg/kg. The procedure:
PK in rats was determined following oral dosing. For the oral (PO) experiments, a group of 6 male Sprague-Dawley rats with an indwelling catheter placed in the cisterna magna were used. The PO group was dosed with 3 or 10 mg/kg of a compound formulated as a solution in PEG400. PO doses were administered by oral gavage and delivered to the stomach using a syringe and gavage tube. Following oral dosage administration, the gavage tube was flushed with approximately 0.5 mL of water to ensure complete delivery of the full dose.
Plasma and CSF samples were collected as follows: samples of CSF and blood were collected at 1 hour and 2 hours post-dosing. CSF samples (0.05 mL) were collected through the intracisternal catheter. Blood samples (0.25 mL) were collected through retro-orbital sampling. These samples were kept on ice until processed for plasma. Blood samples were centrifuged at 3200 rpm for 5 minutes at approximately 5° C. within 1 hour of collection. Plasma was directly transferred to a 96-well plate tube (0.125 mL). Plug caps were placed on the tubes and the tubes frozen at approximately −70° C. and stored until analysis.
Plasma was collected and analyzed for the presence of compound.
The compound in question and the internal standard were extracted from plasma and CSF by precipitation. Samples were analyzed using liquid chromatography (LC) with tandem mass spectrometric detection (MS/MS) using electrospray ionization. The standard curve range was from 1 to 1000 ng/mL. Results of the compounds described herein in this assay are illustrated in Tables 4A (for compounds in Table IA) and 4B (for compounds in Table IB) below.
Kp,uu is defined as the concentration ratio of unbound drug in CSF to unbound drug in plasma. Unbound drug in plasma (or free plasma concentration) is calculated by multiplying the total plasma concentration by the unbound fraction as determined by plasma protein binding. The CSF concentration is then divided by the free plasma concentration to determine the Kp,uu. (See e.g., Di et al., J. Med. Chem., 56, 2-12 (2013))

In a further series the target is T1, sGC enzyme (Homo sapiens, UniProt Q02108+Q02153).
T1 construct: incorporated into these cells detect cGMP formed by the compounds stimulating the sGC enzyme; host or cells: HEK293 cells stably expressing GloSensor 40F cGMP biosensor
T1 sequence (Q02153 1-619): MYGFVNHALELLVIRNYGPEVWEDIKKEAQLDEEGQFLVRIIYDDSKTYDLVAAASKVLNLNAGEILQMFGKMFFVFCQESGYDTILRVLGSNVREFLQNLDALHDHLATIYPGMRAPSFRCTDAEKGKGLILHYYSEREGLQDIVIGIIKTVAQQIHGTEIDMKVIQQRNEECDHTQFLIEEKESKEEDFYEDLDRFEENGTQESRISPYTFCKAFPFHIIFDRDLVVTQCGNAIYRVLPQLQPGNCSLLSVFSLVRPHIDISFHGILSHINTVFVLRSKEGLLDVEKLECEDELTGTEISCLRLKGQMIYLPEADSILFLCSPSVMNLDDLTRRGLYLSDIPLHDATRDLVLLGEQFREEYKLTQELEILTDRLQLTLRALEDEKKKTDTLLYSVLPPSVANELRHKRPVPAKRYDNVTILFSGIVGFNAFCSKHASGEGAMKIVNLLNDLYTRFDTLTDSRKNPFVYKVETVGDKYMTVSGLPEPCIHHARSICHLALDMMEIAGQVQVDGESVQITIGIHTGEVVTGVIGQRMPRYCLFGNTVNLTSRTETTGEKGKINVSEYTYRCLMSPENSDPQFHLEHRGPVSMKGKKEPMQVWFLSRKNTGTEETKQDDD
T1 sequence (Q02108 1-690): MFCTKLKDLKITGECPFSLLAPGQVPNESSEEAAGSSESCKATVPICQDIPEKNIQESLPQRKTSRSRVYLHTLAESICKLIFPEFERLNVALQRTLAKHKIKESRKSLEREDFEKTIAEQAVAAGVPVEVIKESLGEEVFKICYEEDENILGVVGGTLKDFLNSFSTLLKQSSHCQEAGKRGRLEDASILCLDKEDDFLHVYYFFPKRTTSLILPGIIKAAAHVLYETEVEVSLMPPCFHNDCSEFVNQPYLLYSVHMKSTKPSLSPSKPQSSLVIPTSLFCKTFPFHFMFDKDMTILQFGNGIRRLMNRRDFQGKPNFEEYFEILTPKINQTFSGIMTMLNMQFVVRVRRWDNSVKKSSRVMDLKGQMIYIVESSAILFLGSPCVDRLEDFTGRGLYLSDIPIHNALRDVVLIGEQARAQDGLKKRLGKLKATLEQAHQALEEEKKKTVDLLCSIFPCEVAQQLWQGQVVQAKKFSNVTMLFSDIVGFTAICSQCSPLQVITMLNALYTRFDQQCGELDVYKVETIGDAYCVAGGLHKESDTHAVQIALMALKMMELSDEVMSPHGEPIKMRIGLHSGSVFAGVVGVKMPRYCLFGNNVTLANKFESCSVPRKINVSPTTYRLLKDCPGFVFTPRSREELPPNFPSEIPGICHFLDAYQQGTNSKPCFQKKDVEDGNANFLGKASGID
Put plainly: cGMP GloSensor cell-based assay, 384-well format. The settings on record: HEK293 cells expressing GloSensor 40F cGMP, 10 μM DETA-NONOate, normalized to 30 μM Compound Y. The procedure, abridged:
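HEK293 cells expressing GloSensor 40F cGMP luciferase biosensor, preloaded with 2 mM GloSensor substrate for 90 min at 25 °C. Endpoint luminescence read after 55 min compound incubation at room temperature.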

In a further series the target is T2, sGC (Rattus norvegicus, UniProt P20595).
T2 construct: Rat primary neurons were isolated from fetuses of 18-day pregnant Sprague-Dawley females; endogenous in cells; host or cells: Primary rat hippocampal neurons (E18 Sprague-Dawley fetuses)
T2 sequence (P20595 1-619): T1 sequence (Q02153 1-619) with N171S, E205D, N247K, T299A, K615N, D618E, D619N
In words: cGMP neuronal cell-based assay. The settings on record: rat primary hippocampal neurons, 30 μM DETA-NO, cGMP by LC-MS/MS, normalized to 10 μM Compound Y. The procedure: Rat primary neurons were isolated from fetuses of 18-day pregnant Sprague-Dawley females. The fetuses were collected in Hanks' balanced salt solution (HBSS) and brains were rapidly removed. The cerebral hippocampi were isolated and mechanically fragmented. Further tissue digestion was performed with 0.25% (wt/vol) trypsin solution in HBSS without Ca2+ and Mg2+ for 15 min at 37° C. After trypsination, cells were washed and resuspended in neurobasal medium supplemented with 0.5 mM L-glutamine, 12.5 uM glutamic acid, 2% B-27 and 100U/mL penicillin, and 100 μg/mL streptomycin. Cells were plated at a density of 4×10^4 cells/well in a poly-D-lysine coated 384-well flat clear-bottom plate (Corning Cat No 354662). Cells were incubated 6-7 days at 37° C. in a humidified chamber with 5% CO2. Media was removed and cells were washed 1× with HBSS containing Ca2+ and Mg2+, and replaced with 40 uL HBSS containing 0.5 mM IBMX, and incubated for 15 minutes at 37° C. 10 uL of a 5× stock of test compounds with diethylenetriamine NONOate (DETA-NO) was added. Final concentration of DETA-NO was 30 μM. Cells were incubated for 20 min at 37° C. Medium was removed, 50 uL of ice-cold 10% acetic acid was added, and incubated for 60 minutes at 4° C. Following centrifugation at 4° C. for 5 minutes at 1000×g to pellet cell debris, the supernatant was aspirated to a clean plate and the samples were analyzed for cGMP content. cGMP concentrations were determined from each sample using LC-MS/MS.
Data were normalized to a high control using the following equation: 100*(Sample−Low Control)/(High Control−Low Control), where the low control is the average of 15 samples treated with 1% DMSO, and the high control is the average of 15 samples treated with 10 μM of the known sGC stimulator Compound Y (depicted in Example 2). Data were fit using a 4-parameter fit (log(agonist) vs. response—variable slope) using GraphPad Prism Software v.5. n=2 for all compounds. The Absolute EC50 was interpolated from the curve fit and is defined as the concentration at which a given compound elicits 50% of the high control response after data normalization. Compounds failing to elicit a minimum response of 50% are reported as >30 μM. For compounds run in duplicate or n higher than 2, the result herein given is the geometric mean of the several results obtained.

Setting [2] is: compounds in Table IA, read-out: Glo-sensor AbsEC50.
[3] abbreviates: compounds in Table IB, read-out: Glo-sensor Abs EC50.
Setting [4] is: compounds in Table IB, read-out: sGC-Neuron Abs EC50.
The mark [5] stands for this setting: compounds in Table IA, read-out: sGC-neuron Abs EC50.

SMILES strings stand for the structures. Residue numbers refer to the chain shown, from its start. Read-outs that look alike come from different tables or passages of the source. Where only a bound is given, the exact number is not on record here.

With `Fc1cncc(Cn2nc(-c3nc(C(F)(F)F)n[nH]3)c3cccnc32)c1` [Compound I-1, 1-((5-fluoropyridin-3-yl)methyl)-3-(3-(trifluoromethyl)-1H-1,2,4-triazol-5-yl)-1H-pyrazolo[3,4-b]pyridine], in series [1] (compounds in Table IA), the concentration at 1 h was 164 nM and the Kp uu at 1 h turned out to be 0.24. Besides, the EC50 at sGC enzyme (setting [2]) is less than 100 nM.

Take `Cc1n[nH]c(-c2nc(Cc3cncnc3)c3ccccn23)n1` [Compound I-5, 3-(3-methyl-1H-1,2,4-triazol-5-yl)-1-(pyrimidin-5-ylmethyl)imidazo[1,5-a]pyridine]: in series [1] (compounds in Table IB), the concentration at 1 h was 30.4 nM and the Kp uu at 1 h amounted to 1.08. In addition, the EC50 at sGC enzyme (setting [3]) was in the range of 100 to 1000 nM.

Take `FC(F)(F)c1n[nH]c(-c2nc(Cc3cncnc3)c3cc(Cl)ccn23)n1` [Compound I-6, 7-Chloro-1-(pyrimidin-5-ylmethyl)-3-(3-(trifluoromethyl)-1H-1,2,4-triazol-5-yl)imidazo[1,5-a]pyridine]: the EC50 at sGC enzyme (setting [3]) is less than 100 nM; at sGC (setting [4]), no more than 100 nM.

On to `Fc1cnc2c(c1)c(-c1nc(C(F)(F)F)n[nH]1)nn2Cc1ccccc1F` [Compound I-8, 5-Fluoro-1-(2-fluorobenzyl)-3-(3-(trifluoromethyl)-1H-1,2,4-triazol-5-yl)-1H-pyrazolo[3,4-b]pyridine], for which the EC50 on sGC enzyme (setting [2]) was less than 100 nM; on sGC (setting [5]), no more than 100 nM.

On to `FC(F)(F)c1n[nH]c(-c2nc(CCC(F)(F)C(F)(F)F)c3ccccn23)n1` [Compound I-9], for which the EC50 at sGC enzyme (setting [3]) and at sGC (setting [4]) was 100 to 1000 nM each time.

For `Fc1ccc2c(Cc3cncnc3)nc(-c3nc(C(F)(F)F)n[nH]3)n2c1` [Compound I-12, 6-fluoro-1-(pyrimidin-5-ylmethyl)-3-(3-(trifluoromethyl)-1H-1,2,4-triazol-5-yl)imidazo[1,5-a]pyridine], in series [1] (compounds in Table IB), the concentration at 1 h came out at 45 nM and the Kp uu at 1 h was found to be 0.16. For the same molecule, the EC50 on sGC enzyme (setting [3]) is less than 100 nM.

Take `Fc1ccccc1Cn1nc(-c2nc(C(F)F)n[nH]2)c2cccnc21` [Compound I-20, 3-(3-(Difluoromethyl)-1H-1,2,4-triazol-5-yl)-1-(2-fluorobenzyl)-1H-pyrazolo[3,4-b]pyridine]: in series [1] (compounds in Table IA), the concentration at 1 h is 207 nM and the Kp uu at 1 h is 3.37. The EC50 at sGC enzyme (setting [2]) was less than 100 nM.

Take `N#Cc1n[nH]c(-c2nn(Cc3cccc(F)c3F)c3ncccc23)n1` [Compound I-92, 5-(1-(2,3-Difluorobenzyl)-1H-pyrazolo[3,4-b]pyridin-3-yl)-1H-1,2,4-triazole-3-carbonitrile]: in series [1] (compounds in Table IA), the concentration at 1 h was determined as 10.8 nM and the Kp uu at 1 h was found to be 0.52. The EC50 on sGC enzyme (setting [2]) is less than 100 nM.

Consider `Fc1cccc(Cc2nn(-c3nc(C(F)F)n[nH]3)c3cccnc23)c1F` [Compound I-127, 3-(2,3-Difluorobenzyl)-1-(3-(difluoromethyl)-1H-1,2,4-triazol-5-yl)-1H-pyrazolo[4,3-b]pyridine], for which the EC50 on sGC enzyme (setting [2]) was 100 to 1000 nM; at sGC (setting [5]), no more than 100 nM.

Values taken from patent US12435080B2, “sGC stimulators” (Tisento Therapeutics Inc., priority 2016, dated 2025).
